Experiment [1] addresses T1, B1R receptor of the rat (rB1R) (Rattus norvegicus, UniProt P97583).
T1 construct: expressed in transfected cells; host or cells: CHO K1 cells
T1 sequence (P97583 1-337): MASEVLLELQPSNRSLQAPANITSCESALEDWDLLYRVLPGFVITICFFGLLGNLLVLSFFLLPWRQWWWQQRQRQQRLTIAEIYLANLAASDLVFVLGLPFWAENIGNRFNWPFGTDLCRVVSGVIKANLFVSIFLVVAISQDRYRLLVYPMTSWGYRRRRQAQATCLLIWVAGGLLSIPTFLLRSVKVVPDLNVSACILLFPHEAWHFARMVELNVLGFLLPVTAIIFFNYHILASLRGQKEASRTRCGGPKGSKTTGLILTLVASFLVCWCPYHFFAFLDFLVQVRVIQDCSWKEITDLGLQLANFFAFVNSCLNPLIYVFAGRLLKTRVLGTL
The experiment can be described thus: Functional investigation on the bradykinin receptor 1 (B1R), FLIPR Ca2+ assay, rB1R cells. In kind it is cell-based. In short, it runs like this:
(§1)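 Stably transfected CHO K1 cells expressing human or rat B1R were loaded with Fluo-4, and Ca2+ fluorescence was read on a FLIPR. Compound (10 μM) was added first to measure activation. After 10–20 min, agonist at EC80 was added (Lys-Des-Arg9-bradykinin for hB1R, Des-Arg9-bradykinin for rB1R) to give % inhibition. IC50 values came from concentration series.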

Experiment [2] addresses T2, human B1R receptor (hB1R) (Homo sapiens, UniProt P46663).
T2 construct: expressed in transfected cells; host or cells: CHO K1 cells
T2 sequence (P46663 1-353): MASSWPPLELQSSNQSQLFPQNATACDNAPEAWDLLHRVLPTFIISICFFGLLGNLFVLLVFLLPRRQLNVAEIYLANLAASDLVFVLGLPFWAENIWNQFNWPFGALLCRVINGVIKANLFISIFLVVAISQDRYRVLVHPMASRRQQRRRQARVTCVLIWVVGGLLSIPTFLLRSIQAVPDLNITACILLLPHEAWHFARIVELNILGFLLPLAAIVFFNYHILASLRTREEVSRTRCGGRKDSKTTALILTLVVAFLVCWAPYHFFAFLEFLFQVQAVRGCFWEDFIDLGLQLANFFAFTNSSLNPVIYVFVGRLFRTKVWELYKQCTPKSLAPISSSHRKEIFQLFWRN
The experiment can be described thus: Functional investigation on the bradykinin receptor 1 (B1R), FLIPR Ca2+ assay, hB1R cells. In kind it is cell-based. In short, it runs like this:
as §1

The structures appear in SMILES notation.

One may read the inhibition as the relative decrease from the control value, in per cent.

`COc1cc(C)c(S(=O)(=O)N(C)C(C)c2nc3cccc(C(=O)N4CCC5(CCN(Cc6cccnc6)CC5)CC4)c3[nH]2)c(C)c1` (centres unmarked) [I_CC-28, 4-Methoxy-N,2,6-trimethyl-N-[1-[7-[9-(pyridin-3-yl-methyl)-3,9-diazaspiro[5.5]undecane-3-carbonyl]-1H-benzoimidazol-2-yl]-ethyl]-benzenesulfonic acid amide]: the inhibition at 10 µM in experiment [1] came out at 85%; in experiment [2], 96%.

As for `COc1cc(C)c(S(=O)(=O)N(C)C(C)c2nc3cccc(C(=O)N4CCC5(CCN(Cc6cccc(C#N)c6)CC5)CC4)c3[nH]2)c(C)c1` (centres unmarked) [I_CC-44, N-[1-[7-[9-[(3-Cyano-phenyl)-methyl]-3,9-diazaspiro[5.5]undecane-3-carbonyl]-1H-benzoimidazol-2-yl]-ethyl]-4-methoxy-N,2,6-trimethyl-benzenesulfonic acid amide], the results for the inhibition at 10 µM in experiment [1] and in experiment [2] were 101% and 84%, respectively.

Take `COc1cc(C)c(S(=O)(=O)N(C)C(C)c2nc3cccc(C(=O)N4CCC5(CC4)CCN(c4ccncc4)CC5)c3[nH]2)c(C)c1` (centres unmarked) [I_06, 4-methoxy-N,2,6-trimethyl-N-[1-[7-(9-pyridin-4-yl-3,9-diazaspiro[5.5]undecane-3-carbonyl)-1H-benzoimidazol-2-yl]-ethyl]-benzenesulfonic acid amide]: the results for the inhibition at 10 µM in experiment [1] and in experiment [2] were 90% and 94%, respectively.

As for `COc1cc(C)c(S(=O)(=O)N(C)C(C)c2nc3cccc(C(=O)N4CCC5(CC4)CCN(C(=O)C4CC4)CC5)c3[nH]2)c(C)c1` (centres unmarked) [I_CC-50, N-[1-[7-[9-(Cyclopropanecarbonyl)-3,9-diazaspiro[5.5]undecane-3-carbonyl]-1H-benzoimidazol-2-yl]-ethyl]-4-methoxy-N,2,6-trimethyl-benzenesulfonic acid amide], the inhibition at 10 µM in experiment [1] stood at 88%; in experiment [2], 62%.

Take `COc1cc(C)c(S(=O)(=O)N(C)Cc2nc3cccc(C(=O)N4CCC5(CC4)CC(c4ccncc4)=NO5)c3[nH]2)c(C)c1` [I_27, 4-methoxy-N,2,6-trimethyl-N-[[7-(3-pyridin-4-yl-1-oxa-2,8-diazaspiro[4.5]dec-2-ene-8-carbonyl)-1H-benzoimidazol-2-yl]-methyl]-benzenesulfonic acid amide]: the inhibition at 10 µM in experiment [1] came to 94%; in experiment [2], 93%.

Consider `COc1cc(C)c(S(=O)(=O)N(C)C(C)c2nc3cccc(C(=O)N4CCC5(CCN(Cc6c(F)cccc6OC)CC5)CC4)c3[nH]2)c(C)c1` (centres unmarked) [I_CC-34, N-[1-[7-[9-[(2-Fluoro-6-methoxy-phenyl)-methyl]-3,9-diazaspiro[5.5]undecane-3-carbonyl]-1H-benzoimidazol-2-yl]-ethyl]-4-methoxy-N,2,6-trimethyl-benzenesulfonic acid amide], for which the figures for the inhibition at 10 µM in experiment [1] and in experiment [2] were 86% and 91%, respectively.

As for `Cc1cccc(Cl)c1S(=O)(=O)N(C)Cc1nc2cccc(C(=O)N3CCC4(CC3)CCN(c3ccncc3)CC4)c2[nH]1` [I_CC-11, 2-chloro-N,6-dimethyl-N-[[7-(3-pyridin-4-yl-3,9-diazaspiro[5.5]undecane-9-carbonyl)-1H-benzoimidazol-2-yl]-methyl]-benzenesulfonic acid amide], the results for the inhibition at 10 µM in experiment [1] and in experiment [2] were 91% and 98%, respectively.

Regarding `COc1cc(C)c(S(=O)(=O)N(C)C(C)c2nc3cccc(C(=O)N4CCC5(CCN(Cc6cnn(C)c6C)CC5)CC4)c3[nH]2)c(C)c1` (centres unmarked) [I_CC-41, N-[1-[7-[9-[(1,5-Dimethyl-1H-pyrazol-4-yl)-methyl]-3,9-diazaspiro[5.5]undecane-3-carbonyl]-1H-benzoimidazol-2-yl]-ethyl]-4-methoxy-N,2,6-trimethyl-benzenesulfonic acid amide], the inhibition at 10 µM worked out at 98% in experiment [1] and 83% in experiment [2].

Consider `COc1cc(C)c(S(=O)(=O)N(C)Cc2nc3c(C(=O)N4CCC5(CC4)CCN(c4ccncc4)C5)cccc3s2)c(C)c1` [I_CC-20, 4-methoxy-N,2,6-trimethyl-N-[[4-(3-pyridin-4-yl-3,8-diazaspiro[4.5]decane-8-carbonyl)-benzothiazol-2-yl]-methyl]-benzenesulfonic acid amide], for which the values for the inhibition at 10 µM in experiment [1] and in experiment [2] were 100% and 93%, respectively.

Consider `COc1cc(C)c(S(=O)(=O)N(C)c2nc3cccc(C(=O)N4CCC5(CC4)CCN(c4ccncc4)C5)c3n2C)c(C)c1` [I_CC-15, 4-methoxy-N,2,6-trimethyl-N-[1-methyl-7-(3-pyridin-4-yl-3,8-diazaspiro[4.5]decane-8-carbonyl)-1H-benzoimidazol-2-yl]-benzenesulfonic acid amide], for which the inhibition at 10 µM was found to be 99% in experiment [1] and 97% in experiment [2].

Turning to `COc1cc(C)c(S(=O)(=O)N(C)C(C)c2nc3cccc(C(=O)N4CCC5(CCN(Cc6[nH]cnc6C)CC5)CC4)c3[nH]2)c(C)c1` (centres unmarked) [I_CC-35, 4-Methoxy-N,2,6-trimethyl-N-[1-[7-[9-[(5-methyl-3H-imidazol-4-yl)-methyl]-3,9-diazaspiro[5.5]undecane-3-carbonyl]-1H-benzoimidazol-2-yl]-ethyl]-benzenesulfonic acid amide], the inhibition at 10 µM in experiment [1] is 104%; in experiment [2], 68%.

On to `COc1cc(C)c(S(=O)(=O)N(C)C(C)c2nc3cccc(C(=O)N4CCC5(CCN(Cc6ccc(F)cc6F)CC5)CC4)c3[nH]2)c(C)c1` (centres unmarked) [I_CC-32, N-[1-[7-[9-[(2,4-Difluoro-phenyl)-methyl]-3,9-diazaspiro[5.5]undecane-3-carbonyl]-1H-benzoimidazol-2-yl]-ethyl]-4-methoxy-N,2,6-trimethyl-benzenesulfonic acid amide], for which the values for the inhibition at 10 µM in experiment [1] and in experiment [2] were 99% and 71%, respectively.

As for `CN(Cc1nc2cccc(C(=O)N3CCC4(CC3)CCN(c3ccncc3)CC4)c2[nH]1)S(=O)(=O)c1cccc2ccccc12` [I_07, N-methyl-N-[[7-(9-pyridin-4-yl-3,9-diazaspiro[5.5]undecane-3-carbonyl)-1H-benzoimidazol-2-yl]-methyl]-naphthalene-1-sulfonic acid amide], the inhibition at 10 µM was found to be 96% in experiment [1] and 98% in experiment [2].

Take `Cc1cccc(Cl)c1S(=O)(=O)N(C)Cc1nc2cccc(C(=O)N3CCC4(CC3)CCN(c3ccncc3)C4)c2[nH]1` [I_CC-07, 2-chloro-N,6-dimethyl-N-[[7-(3-pyridin-4-yl-3,8-diazaspiro[4.5]decane-8-carbonyl)-1H-benzoimidazol-2-yl]-methyl]-benzenesulfonic acid amide]: the inhibition at 10 µM in experiment [1] amounted to 97%; in experiment [2], 100%.

In the case of `O=C1c2c(Cl)cccc2CN1Cc1nc2cccc(C(=O)N3CCC4(CC3)CCN(c3ccncc3)C4)c2[nH]1` [I_CC-13, 7-chloro-2-[[7-(3-pyridin-4-yl-3,8-diazaspiro[4.5]decane-8-carbonyl)-1H-benzoimidazol-2-yl]-methyl]-2,3-dihydro-isoindol-1-one], the inhibition at 10 µM is 49% in experiment [1] and 71% in experiment [2].

Turning to `COc1cc(C)c(S(=O)(=O)N(Cc2nc3cccc(C(=O)N4CCC5(CC4)CCN(c4ccncc4)CC5)c3[nH]2)C2CC2)c(C)c1` [I_14, N-cyclopropyl-4-methoxy-2,6-dimethyl-N-[[7-(9-pyridin-4-yl-3,9-diazaspiro[5.5]undecane-3-carbonyl)-1H-benzoimidazol-2-yl]-methyl]-benzenesulfonic acid amide], the figures for the inhibition at 10 µM in experiment [1] and in experiment [2] were 95% and 99%, respectively.

Source of the values: patent US8232288B2, “Substituted benzimidazoles, benzothiazoles and benzoxazoles” (Gruenenthal GmbH, priority 2009, dated 2012).
